Measured values taken from PMC10388301, “Exploring the Anticancer Activity of Tamoxifen-Based Metal Complexes Targeting Mitochondria” (Journal of Medicinal Chemistry, 2023).

Target: T1, thioredoxin reductase 1 (TrxR1, cytosolic) (Rattus norvegicus, UniProt O89049)
T1 construct: gene Txnrd1; highly purified enzyme from rat liver
T1 sequence (O89049 1-499): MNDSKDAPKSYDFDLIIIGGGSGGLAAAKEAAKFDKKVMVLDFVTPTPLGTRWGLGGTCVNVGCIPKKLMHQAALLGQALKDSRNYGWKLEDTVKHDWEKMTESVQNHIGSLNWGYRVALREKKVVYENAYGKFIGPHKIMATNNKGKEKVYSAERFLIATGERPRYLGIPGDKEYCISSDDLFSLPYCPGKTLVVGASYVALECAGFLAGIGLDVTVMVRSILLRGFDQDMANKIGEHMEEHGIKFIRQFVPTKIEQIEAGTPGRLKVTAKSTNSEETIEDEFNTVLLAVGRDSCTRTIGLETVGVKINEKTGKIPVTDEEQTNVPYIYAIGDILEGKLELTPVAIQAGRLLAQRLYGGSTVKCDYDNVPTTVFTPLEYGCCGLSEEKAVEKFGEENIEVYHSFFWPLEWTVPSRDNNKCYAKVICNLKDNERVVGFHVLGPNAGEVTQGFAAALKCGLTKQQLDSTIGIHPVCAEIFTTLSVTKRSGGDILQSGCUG
Assay: DTNB reduction assay on purified rat liver TrxR1; BIAM labelling of Sec/Cys residues
Format: biochemical

SMILES: CCC(=C(c1ccc(OC)cc1)c1ccc(OC)cc1)c1cc[n+]2c(c1)-c1cccc[n+]1[Au-]2([Cl])[Cl].F[P-](F)(F)(F)(F)F [AuTAML]
- DTNB reduction assay on purified rat liver TrxR1; BIAM labelling of Sec/Cys resi: a strong inhibition of TrxR1 activity was observed at low nanomolar concentrations of the Au(III) complex
